Results as given in patent US20060149033A1, “IGF antagonist peptides” (GENENTECH, INC., priority 2001, published 2006).
Bridge positions count the residues as written; N and C are the ends. Peptide text beside a SMILES is read from it.

Legend:
[1] = tested on: human insulin receptor (hIR); experiment: Cell-based insulin KIRA assay (kinase receptor activation); details: Chinese hamster ovary cells transfected with hIR; peptides incubated with 25 nm IGF-1 for 1 hr; 15 min stimulation
Description: Cell-Based Insulin KIRA Assay of IGF-1 Binding Peptide Activity
A kinase receptor activation assay (KIRA) (Sadick et al., J. Pharm. Biomed. Anal., 19, 883-891 (1999)) for measuring phosphorylation of human insulin receptor (hIR) was developed using Chinese hamster ovary cells transfected with the hIR. (TRY-1R 5.3) Cells were grown overnight in 96-well plates with medium (PS/20) at 37° C. Supernatants were decanted and stimulation media (PS/20 and 0.5% BSA) containing either peptide samples (peptides incubated with 25 nm IGF-1 for 1 hr), experimental controls (IGF Bp1 incubated with IGF-1 for 1 hr), and 25 nm rhIGF-1 standards were added. After fifteen minute stimulation at 37° C., stimulation solutions were removed and cells were lysed with a buffer containing 50 mM HEPES, 150 mM NaCl, 0.5% Triton-X-100™ octylphenyl ethylene oxide condensate, 1 mM AEBSF, aprotinin and 0.05 mM leupeptin, and 2 mM sodium orthovanadate. Lysates were frozen at −70° C. for ELISA. Immunosorbant plates were coated with 2 μg/ml insulin receptor Ab-2 (clone 83-7) in PBS at pH 7.0 overnight at 4° C. The plate was blocked and washed as above. Cell lysates containing transfected hIR were incubated on the capture ELISA plates for 2 hrs. After removing unbound receptor by washing, biotinylated anti-phosphotyrosine 4G10 (Upstate Biologicals Inc.) was added to detect activated receptor. After 2 hrs, the plates were developed with streptavidin conjugated to HRP and TMB substrate as above.

[2] = tested on: IGF receptors on MCF-7 cells; experiment: Displacement of 125I IGF-1 on MCF-7 cells; set-up: species or system human; details: peptides preincubated with 2 nm 125I IGF-1 for 40 minutes at 37° C; added to cells for 30 minutes; read-out: MCF-7 binding
Description: Displacement of IGF-1 on MCF-7 Cells
MCF7 (ATCC-HTB, Bethesda, Md.), a breast carcinoma cell line that expresses IGF receptors as well as insulin receptors (Grupe et al., J. Biol. Chem., 270, 22085-22088 (1995)) was used to detect inhibition of ^125I IGF-1 to receptors on cells by synthesized peptides. Cell were passaged weekly in media containing a 50/50 mix of high-glucose DMEM/Ham's F12, with 10% fetal bovine serum and 10 mM HEPES pH 7.2. Cells were plated and grown overnight maintained at 37° C. and 5% CO2. For IGF-1 iodination, 50 μg of IGF-1 was diluted into 200 μL of PBS and added to a tube coated with 100 μg of IODOGEN® 1,3,4,6-tetrachloro-3α-6β-diphenylglycouril) (Pierce Chemical Co.), incubated with 1 mCi of ^125I-NaI (10 μL) at room temperature for 10-15 minutes. Synthesized peptides and binding protein controls were preincubated with 2 nm ^125I IGF-1 for 40 minutes at 37° C. The samples were added to cells for 30 minutes. The cells were washed with media and lysed with 1N NaOH.

[3] = tested on: human type 1 IGF-1 receptor; experiment: Cell-based IGF-1 KIRA assay; details: MCF-7 cells; peptides preincubated 30 min with 2 nm IGF-1; 15-minute stimulation
Description: Cell-Based IGF-1 KIRA Assay
A KIRA for measuring the activation of the human type 1 IGF-1 receptor was performed using human MCF-7 cells (as described above). Cells were grown overnight in 96-well plates with medium (50:50 F12/DMEM, Gibco). Supernatants were decanted, and stimulation media (50:50 F12/DMEM with 25 mM HEPES and 2.0% BSA) containing either controls (2 nM IGF-1 preincubated with IGF Bp1 or Bp3) or experimental samples (Peptides preincubated for 30 min. with 2 nm IGF-1) were added. After 15-minute stimulation the cells were lysed, and added to the polyclonal anti-IGF-R (3B7 Santa Cruz Biotech) coated overnight on immunosorbant plates. The detection ELISA was performed as above.

[4] = target: IGFBP-1; experiment: Peptide inhibition of phage IGF-1 binding to IGFBP-1; set-up: species or system human; details: synthetic peptide preincubated 45 minutes with IGF-1 displaying phage; plates coated with IGF binding protein; read-out: BP1 Comp
Description: (§1) Peptide Inhibition of Phage IGF-1 Binding to IGF Binding Proteins
(§2) For inhibition of IGFBP-1 and IGFBP3, E. coli cells (XL1-Blue, Stratagene) freshly transformed with the phage vector pIGF-g3 displaying human IGF-1 as described in Dubaquie and Lowman, supra, was grown overnight in 5 ml of 2YT medium (Sambrook et al., Molecular Cloning. A Laboratory Handbook (Cold Spring Harbor Laboratory Press, Cold Spring Harbor, N.Y., 1989)). The IGF-1 displaying phage was titered against IGF bp1 and bp3 for a 500-1000× dilution for preincubation with serial dilutions the synthesized peptides and binding protein standards for 45 minutes. Immunosorbant plates were coated with IGF binding proteins and blocked with 0.5% TWEEN®-20 detergent and PBS and washed as above. The samples were added to the plates for 20 minutes, washed and detected as above. The experimental IC50 values are in Table 5.

[5] = target: IGFBP3; experiment: Peptide inhibition of phage IGF-1 binding to IGFBP-3; set-up: species or system human; details: synthetic peptide preincubated 45 minutes with IGF-1 displaying phage; plates coated with IGF binding protein; read-out: BP3 Comp
Description: as §1, §2

| SMILES | IC50 [1] [µM] | IC50 [2] [µM] | IC50 [3] [µM] | IC50 [4] [µM] | IC50 [5] [µM] |
| --- | --- | --- | --- | --- | --- |
| CSCC[C@H](NC(=O)[C@@H]1CSSC[C@H](NC(=O)[C@H](CC(N)=O)NC(=O)[C@@H](N)CCCNC(=N)N)C(=O)N[C@@H](Cc2ccccc2)C(=O)N[C@@H](CCC(=O)O)C(=O)N[C@@H](CO)C(=O)N[C@@H](C(C)C)C(=O)N[C@@H](C)C(=O)N[C@@H](C)C(=O)N[C@@H](CC(C)C)C(=O)N[C@@H](CCCNC(=N)N)C(=O)N[C@@H](CCCNC(=N)N)C(=O)N1)C(=O)N[C@@H](Cc1ccc(O)cc1)C(=O)NCC(=O)O [Peptide F1-1, RNCFESVAALRRCMYG] (H-RNCFESVAALRRCMYG-OH; disulfide 3-13) | 5.48 | 5.12 | 84.9 | 1.4 | 2.93 |
| CSCC[C@H](NC(=O)[C@@H]1CSSC[C@H](NC(=O)[C@H](CC(=O)O)NC(=O)[C@@H](N)CCSC)C(=O)N[C@@H](CC(C)C)C(=O)N[C@@H](C)C(=O)N[C@@H](CO)C(=O)N[C@@H](C(C)C)C(=O)N[C@@H](CCC(=O)O)C(=O)N[C@@H](C)C(=O)N[C@@H](CC(C)C)C(=O)N[C@@H](CCCCN)C(=O)N[C@@H](Cc2c[nH]c3ccccc23)C(=O)N1)C(=O)N[C@@H](Cc1ccc(O)cc1)C(=O)NCC(=O)O [Peptide F1-2, MDCLASVEALKWCMYG] (H-MDCLASVEALKWCMYG-OH; disulfide 3-13 (inferred); N-terminus and C-terminus assumed) | 32.6 | 15.3 | 20 | 15.5 | 9.2 |
| CSCC[C@H](NC(=O)[C@@H]1CSSC[C@H](NC(=O)[C@H](CCC(=O)O)NC(=O)[C@@H](N)Cc2ccccc2)C(=O)N[C@@H](CC(C)C)C(=O)N[C@@H]([C@@H](C)O)C(=O)N[C@@H](CO)C(=O)N[C@@H](C(C)C)C(=O)N[C@@H](CCC(=O)O)C(=O)N[C@@H](C)C(=O)N[C@@H](CC(C)C)C(=O)N[C@@H](CCCNC(=N)N)C(=O)NCC(=O)N1)C(=O)N[C@@H](Cc1ccc(O)cc1)C(=O)NCC(N)=O [Peptide F1-3, FECLTSVEALRGCMYG] (H-FECLTSVEALRGCMYG-NH2; disulfide 3-13; N-terminus and C-terminus assumed) | 66.1 | 45.7 | 102 | 11.7 | 12.8 |
